Measured values as given in patent US20260083129A1, “PYRAZOLE AMIDE INSECTICIDES” (FMC CORPORATION, priority 2022, published 2026).

Test system: cotton melon aphid (Aphis gossypii (Glover))
Experiment: Test C: control of cotton melon aphid on sprayed okra plant
Type: in vivo
Conditions: sprayed at 250 ppm; assessed after 6 days
Method: Test compounds were formulated using a solution containing 10% acetone, 90% water and 300 ppm Activator 90@non-ionic surfactant (Loveland Products, Loveland, Colorado, USA). The formulated compounds were applied in 1 mL of liquid through an atomized nozzle positioned 1.27 cm (0.5 inches) above the top of each test unit. Test compounds were sprayed at the rates indicated, and each test was replicated three times.
For evaluating control of cotton melon aphid (Aphis gossypii (Glover)) through contact and/or systemic means, the test unit consisted of a small open container with a 5-day-old okra plant inside. This was pre-infested with 30-40 insects on a piece of leaf according to the cut-leaf method, and the soil of the test unit was covered with a layer of sand.
Test compounds were formulated and sprayed at 250, 50, 10, and 2 ppm with three replications as described above. After spraying, the test units were maintained in a growth chamber for 6 days at 19° C. and 70% relative humidity. Each test unit was then visually assessed for insect mortality.

Structure (SMILES): CC(c1c([N+](=O)[O-])cnn1-c1ncccn1)N(C)C(=O)c1cc(C(F)(F)F)cc(C(F)(F)F)c1 (stereo not shown) [Compound 96]
- mortality: at least 80%
